Laboratory results as given in patent EP1379634B1 (THE UNIVERSITY OF GEORGIA RESEARCH FOUNDATION, INC., priority 2001, dated 2002).
Residues, ends and D or L forms follow the SMILES beside them. *: point of attachment. Cbz = O=C(OCc1ccccc1)*; CH2F = FC*

Assays:
[1] = tested on: purified Taenia solium cysteine protease; assay: Protease inactivator inhibition assay against cocktail, EC100 and Ki (Step VII); format: biochemical
Excerpt: Once the protease inactivators were synthesized in the organic laboratory, they were to be tested for the lowest efficacious concentrations at which they induced 100% inhibition of the target protease (EC100). The top percent cocktail that was employed in the final vehicle selection step of Step III was employed as the source of competition for the inhibitors. In this case, this was the 7.9% cocktail that was comprised of Z-FR-AFC, Z-FAR-AFC, Z-AP-AFC, Z-AAK-AFC, and Z-VLR-AFC. The final result would be a ranking of transition state candidate protease inactivators with a high ranking directly correlating to a low EC100 value. The following steps describe the assay: • Step A: Initial Screening. To set up the test control, each protease inactivator was first incubated with the 5% cocktail (which provided the final differentiation of vehicles in Step III). To begin with, the protease inactivator was incubated at a concentration of 3 X 10^-9M in 500 ul of assay buffer (0.2 M Citrate, pH 4.9, supplemented with 10mM L-cysteine). This concentration was determined by a series of inhibitor dilutions to be the best inhibitor concentration at which a differentiation in inhibitor potential could be noted. Next, a concentration equal to 4 X 10^-5M for each of the individual cocktail components, was added to the mix. The components were allowed to equilibrate for a period of 30 minutes. Finally, active purified enzyme was added to the tubes at a concentration which was always at least 50 times less than the concentration of the lowest concentration in the mix (so as to provide saturating conditions.) This concentration varied from purification to purification, and the amount that was added depended upon the yield and specific activity of the purified protease. Positive controls were set up similarly as described for test controls, except that solvent was added in substitution for the protease inactivator (in a volume equal to the […] volume addition). All of the protease inactivators could be dissolved in dimethylsulfoxide (DMSO), and therefore, this was the solvent of choice. Negative controls were set up by adding the protease inactivator and the cocktail substrates in a tube, without the protease. All potential non-proteolytic induced liberation of AFC was therefore controlled for in this tube. All controls were set up in triplicate, and experiments repeated a minimum of five times. The assays were incubated at 37°C, overnight. Percent inhibition was calculated as: %Inhibition = ((AFC positive for "SI"−AFC negative for "SI")−(AFC test−AFC negative for "SI"))/(AFC positive for "SI"−AFC negative for "SI") × 100 [formula] • Step B: Inhibitor Dilution Studies and formation of a ranked list of protease inactivators based upon EC100 values. […] Because of this, a dilution study was required in order to determine a viable ranking. Thus, the concentration of each of the protease inactivators was lowered with a dose response setup until the most efficacious concentration for 100% inhibition (EC100) could be determined. The inhibitors had to be diluted to nanomolar levels in order to establish a differentiable EC100 pattern. The final result of the assay was a ranked candidate list of protease inactivators. A lower EC100 was attributable to a higher ranking and vice-versa. • Step C: Determination of Inhibitor Ki and mode of inhibition, and re-ranking of EC100 list with inhibitor Ki. Ki of each of the top ranked protease inactivators, based upon low EC100 values, was assessed next for the top 5 EC100 inhibitors.
In order to determine Ki, all of the high Vmax cocktail substrates were employed for Ki determination (since Ki of the inhibitor for the enzyme is the same regardless of the substrate). To insure the highest accuracy, Ki was to be determined upon a minimum of at least three of the high Kcat substrates. Nonlinear fitting and the Dixon plot were both employed to determine Ki of the top ranked protease inactivators. […]

[2] = tested on: BALB/c mice; assay: Observation of side effects in treated mice; format: in vivo
[3] = tested on: Taenia crassiceps cysts; assay: Short-term protection of BALB/c mice from cysticercosis infection; format: in vivo; conditions: repeat study, BALB/c mice
[4] = biological target: Cathepsin D (Homo sapiens, UniProt P07339); assay: Selectivity test (Steps VI and IX), Cathepsin D; format: biochemical; conditions: vehicle 4 X 10^-5 M; pH 7.1, substrate Z-RGFFP-AFC; 40 µM
Sequence of Cathepsin D (P07339 65-412): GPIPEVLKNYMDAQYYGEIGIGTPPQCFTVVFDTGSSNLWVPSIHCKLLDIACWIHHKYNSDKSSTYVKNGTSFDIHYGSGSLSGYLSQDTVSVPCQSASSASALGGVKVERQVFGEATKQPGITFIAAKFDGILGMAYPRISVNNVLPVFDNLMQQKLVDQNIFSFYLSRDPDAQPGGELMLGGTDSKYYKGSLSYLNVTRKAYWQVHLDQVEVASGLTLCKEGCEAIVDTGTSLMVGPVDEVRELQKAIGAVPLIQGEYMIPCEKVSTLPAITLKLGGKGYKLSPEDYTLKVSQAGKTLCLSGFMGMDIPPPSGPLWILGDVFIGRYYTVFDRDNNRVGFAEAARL
Protocol: In order to perform the assay, the vehicle (for Step VI) or inhibitor (for Step IX) were incubated with the appropriate substrate in the correct assay buffer and allowed to equilibrate. Subsequently, the protease was added, and the assay was allowed to incubate for an appropriate time. The concentrations used in this experiment were as follows: Vehicle was set up at 4 X 10^-5 M in final assay buffer; Inhibitor was set up at 3 X 10^-10 M in the final assay buffer. Preferably the dosages employed should be the minimal amount of vehicle or inhibitor necessary to induce inhibition. […] Substrates were set up based upon the preferred substrate for cleavage of the particular enzyme.
Positive controls were set up similarly as described for test controls, except that a solvent blank was added in substitution for the inhibitor or vehicle (in a volume equal to the volume of inhibitor or vehicle addition). All of the inhibitors and vehicles could be dissolved in dimethylsulfoxide (DMSO), and therefore, this was the solvent of choice. Negative controls were set up by adding the inhibitor or vehicle and the preferred substrates in a tube without the protease. […]
Percent inhibition was calculated as: %Inhibition = ((AFC positive for "SI"−AFC negative for "SI")−(AFC test−AFC negative for "SI"))/(AFC positive for "SI"−AFC negative for "SI") × 100 [formula] […]

Compound	% Inhibition of T. solium CP in vitro ([1]; concentration not stated in Table 4) [%]	ranking by EC100 ([1]; dilution study, nanomolar levels)	side effects in treated animals ([2]; long or short-term period)	side effects in treated mice ([2]; long-term studies)	side effects / inhibitor toxicity in treated mice ([2]; mouse, in vivo)	protection from cysticercosis infection, subsequent identical prophylactic experiment [3]	% inhibition [4] [%]
CC(C)C[C@H](NC(=O)OCc1ccccc1)C(=O)N[C@@H](CC(C)C)C(=O)N[C@@H](Cc1ccc(O)cc1)C(=O)CF [Z-LLY-FMK, Z-Leu-Leu-Tyr-FMK] (Cbz-Leu-Leu-Tyr-CH2F)	97	top inhibitors	only negligible side effects	no side effects	no mice showed effects of inhibitor toxicity	75%-90%	–
Mu-Leu-Tyr-AFC [Mu-LY-AFC]	–	–	–	–	–	–	0
